From patent US9682940B2, “Indazole derivatives useful as CB-1 inverse agonists” (Janssen Pharmaceutica NV, priority 2015, dated 2017) come the findings set out here.

Experiment [1] addresses Human CB1R (Cannabanoid receptor 1) (Homo sapiens (Human), UniProt P21554). Kind of experiment: CB-1 in vitro cAMP (HTRF) assay in HEK-293 cells. Type of experiment: cell-based. The note with it: HEK-293 cells stably transfected with human CB1R, 250 nM Forskolin, mean where tested more than once, read-out: CB-1 (HEK_cAMP) EC50. A digest of the protocol: (§1)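 HEK-293 cells stably expressing human CB1 or CB2 plated overnight, then tested in HBSS/5 mM HEPES/0.1% BSA with 0.5 mM IBMX and forskolin (1.5 μM working dilution). Intracellular cAMP quantified by competitive HTRF immunoassay (d2-cAMP, cryptate anti-cAMP) against a cAMP standard curve; compounds as 1/3 serial dilutions from 10 mM DMSO stocks.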
For orientation: In TR-FRET formats the signal depends on donor and acceptor labels being close together.

Experiment [2] addresses Human CB2R (Cannabanoid receptor 2) (Homo sapiens (Human), UniProt P34972). Kind of experiment: CB-2 in vitro cAMP (HTRF) assay in HEK-293 cells. Type of experiment: cell-based. To be noted: HEK-293 cells stably transfected with human CB2R, 250 nM Forskolin, mean where tested more than once, read-out: CB-2 (HEK_cAMP) EC50. In outline: as §1

Chain of Human CB2R (Cannabanoid receptor 2) (P34972 whole entry): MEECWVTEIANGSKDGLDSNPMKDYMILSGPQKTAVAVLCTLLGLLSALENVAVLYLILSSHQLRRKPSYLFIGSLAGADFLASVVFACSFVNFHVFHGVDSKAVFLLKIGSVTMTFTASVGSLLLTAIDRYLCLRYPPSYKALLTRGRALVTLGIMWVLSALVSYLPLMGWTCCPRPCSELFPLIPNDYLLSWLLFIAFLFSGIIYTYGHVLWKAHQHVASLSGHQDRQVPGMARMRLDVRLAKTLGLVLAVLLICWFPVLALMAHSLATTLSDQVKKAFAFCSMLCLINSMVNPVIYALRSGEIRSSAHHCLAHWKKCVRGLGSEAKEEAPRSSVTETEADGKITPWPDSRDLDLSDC
Chain of Human CB1R (Cannabanoid receptor 1) (P21554 whole entry): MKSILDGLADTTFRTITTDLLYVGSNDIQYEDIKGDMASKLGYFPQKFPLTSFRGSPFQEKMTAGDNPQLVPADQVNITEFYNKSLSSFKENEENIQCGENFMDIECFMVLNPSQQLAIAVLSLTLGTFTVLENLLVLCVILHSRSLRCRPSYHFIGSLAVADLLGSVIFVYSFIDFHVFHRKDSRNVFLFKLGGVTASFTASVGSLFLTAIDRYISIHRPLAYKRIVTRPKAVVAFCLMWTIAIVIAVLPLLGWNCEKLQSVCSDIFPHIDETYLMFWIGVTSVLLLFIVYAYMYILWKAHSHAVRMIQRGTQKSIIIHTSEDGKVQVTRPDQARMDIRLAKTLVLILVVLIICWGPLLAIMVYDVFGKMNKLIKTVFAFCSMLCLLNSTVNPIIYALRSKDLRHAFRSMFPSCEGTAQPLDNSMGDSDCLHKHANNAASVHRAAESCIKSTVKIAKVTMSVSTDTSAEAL

The EC50 is the concentration at which the effect is half-maximal. In the case of `O=C(O)c1ccc(C(c2ccc(Cl)cc2)c2ccc3nn(C4CC4)c(C4CCN(S(=O)(=O)C(F)(F)F)CC4)c3c2)cc1` (stereo not shown) [Compound 238, 4-[(4-chlorophenyl) ([2-cyclopropyl-3-[1-(trifluoromethane)sulfonylpiperidin-4-yl]-2H-indazol-5-yl])methyl]benzoic acid], the figures for the EC50 in experiment [1] and in experiment [2] were 198 nM and over 10000 nM, respectively.

For the compound `NC(=O)c1cccc(N2CCC(c3c4cc(C(c5ccc(Cl)cc5)c5ccc(Cl)cc5)ccc4nn3C3CC3)CC2)c1` [Compound 184, 3-(4-(5-(bis(4-chlorophenyl)methyl)-2-cyclopropyl-2H-indazol-3-yl)piperidin-1-yl)benzamide], the EC50 is 26 nM in experiment [1] and over 10000 nM in experiment [2].

Regarding `CC(C)(C)OC(=O)N1CCC(c2nn(CCO)c3ccc(C(c4ccc(Cl)cc4)c4ccc(Cl)cc4)cc23)CC1` [Compound 76], the half-maximal effective concentration (EC50) in experiment [1] is 112 nM; in experiment [2], over 10000 nM.

As for `O=C(O)CCNC(=O)c1ccc(-n2nc(C3CCN(S(=O)(=O)C(F)(F)F)CC3)c3cc(C(c4ccc(Cl)cc4)c4ccc(Cl)cc4)ccc32)cc1` [Compound 230], the EC50 was 3260 nM in experiment [1] and over 10000 nM in experiment [2].

Take `O=S(=O)(c1ccccc1C(F)(F)F)N1CCC(c2n[nH]c3ccc(C(c4ccc(Cl)cc4)c4ccc(Cl)cc4)cc23)CC1` [Compound 33]: the results for the EC50 in experiment [1] and in experiment [2] were 49 nM and over 10000 nM, respectively.

For `NC(=O)Cc1ccc(N2CCC(c3c4cc(C(c5ccc(Cl)cc5)c5ccc(Cl)cc5)ccc4nn3C3CC3)CC2)cc1` [Compound 186], the EC50 in experiment [1] is 59 nM; in experiment [2] it was over 10000 nM.

With `O=C(O)c1ccc(C(O)(c2ccc(Cl)cc2)c2ccc3[nH]nc(C4CCN(S(=O)(=O)C(F)(F)F)CC4)c3c2)cc1` (stereo not shown) [Compound 187], the EC50 in experiment [1] was 3040 nM; in experiment [2], over 10000 nM.

With `O=C(OCc1ccccc1)N1CCC(c2n[nH]c3ccc(C(c4ccc(Cl)cc4)c4ccc(Cl)cc4)cc23)CC1` [Compound 265], the half-maximal effective concentration (EC50) is 208 nM in experiment [1] and over 10000 nM in experiment [2].

In the case of `O=C(O)CCC(=O)N1CCC(c2c3cc(C(c4ccc(Cl)cc4)c4ccc(Cl)cc4)ccc3nn2C2CC2)CC1` [Compound 135], the EC50 in experiment [1] was 166 nM; in experiment [2], over 10000 nM.

For `NC(=O)COc1ccc(N2CCC(c3n[nH]c4ccc(C(c5ccc(Cl)cc5)c5ccc(Cl)cc5)cc34)CC2)cc1` [Compound 217], the 50% effective concentration (EC50) in experiment [1] was found to be 1030 nM; in experiment [2] it was 4100 nM.

For `O=C(O)c1ccc(-n2nc(C3CCN(S(=O)(=O)C(F)(F)F)CC3)c3cc(C(c4ccc(Cl)cc4)c4ccc(Cl)cc4)ccc32)cc1` [Compound 204], the EC50 is 19 nM in experiment [1] and over 10000 nM in experiment [2].

Regarding `Cc1ccc(C(c2ccc(C)cc2)c2ccc3c(c2)c(C2CCN(Cc4cccc(C(=O)O)c4)CC2)nn3C2CC2)cc1` [Compound 244], the EC50 in experiment [1] is 48 nM; in experiment [2], over 10000 nM.

Take `O=C(O)CCC(=O)N1CCC(c2nn(C3CC3)c3ccc(C(c4ccc(Cl)cc4)c4ccc(Cl)cc4)cc23)CC1` [Compound 107]: the results for the EC50 in experiment [1] and in experiment [2] were 920 nM and over 10000 nM, respectively.

Consider `NS(=O)(=O)N1CCC(c2n[nH]c3ccc(C(c4ccc(Cl)cc4)c4ccc(Cl)cc4)cc23)CC1` [Compound 23], for which the EC50 in experiment [1] was 2150 nM; in experiment [2], over 10000 nM.

Consider `O=S(=O)(N1CCN(c2n[nH]c3ccc(C(c4ccc(Cl)cc4)c4ccc(Cl)cc4)cc23)CC1)C(F)(F)F` [Compound 26], for which the EC50 in experiment [1] was 5 nM; in experiment [2] it was over 10000 nM.

Consider `O=S(=O)(C(F)F)N1CCC(c2n[nH]c3ccc(C(c4ccc(Cl)cc4)c4ccc(Cl)cc4)cc23)CC1` [Compound 219], for which the half-maximal effective concentration (EC50) was 1540 nM in experiment [1] and over 10000 nM in experiment [2].

Regarding `COC(=O)c1ccc(CN2CCC(c3n[nH]c4ccc(C(c5ccc(Cl)cc5)c5ccc(Cl)cc5)cc34)CC2)cc1` [Compound 258], the EC50 in experiment [1] is 428 nM; in experiment [2], over 42000 nM.

For the compound `O=C(O)c1cccc(C(=O)N2CCC(c3c4cc(C(c5ccc(Cl)cc5)c5ccc(Cl)cc5)ccc4nn3C3CC3)CC2)c1` [Compound 111], the figures for the EC50 in experiment [1] and in experiment [2] were 3500 nM and over 10000 nM, respectively.

Regarding `NC(=O)c1ccc(CN2CCC(c3nn(C4CC4)c4ccc(C(c5ccc(Cl)cc5)c5ccc(Cl)cc5)cc34)CC2)cc1` [Compound 210], the figures for the concentration for a half-maximal effect (EC50) in experiment [1] and in experiment [2] were 134 nM and over 10000 nM, respectively.

Regarding `Cn1nc(C2CCN(S(=O)(=O)c3cccc(C(=O)O)c3)CC2)c2cc(C(c3ccc(Cl)cc3)c3ccc(Cl)cc3)ccc21` [Compound 63], the figures for the half-maximal effective concentration (EC50) in experiment [1] and in experiment [2] were 66 nM and over 10000 nM, respectively.

In the case of `NC(=O)Cn1nc(N2CCN(S(=O)(=O)C(F)(F)F)CC2)c2cc(C(c3ccc(Cl)cc3)c3ccc(Cl)cc3)ccc21` [Compound 19], the values for the half-maximal effective concentration (EC50) in experiment [1] and in experiment [2] were 84 nM and over 10000 nM, respectively.

Take `O=C(O)Cc1cccc(N2CCC(c3c4cc(C(c5ccc(Cl)cc5)c5ccc(Cl)cc5)ccc4nn3C3CC3)CC2)c1` [Compound 185]: the concentration for a half-maximal effect (EC50) is 833 nM in experiment [1] and over 10000 nM in experiment [2].

`O=S(=O)(c1cccc(C(F)(F)F)c1)N1CCC(c2n[nH]c3ccc(C(c4ccc(Cl)cc4)c4ccc(Cl)cc4)cc23)CC1` [Compound 59]: the EC50 was 374 nM in experiment [1] and over 10000 nM in experiment [2].

Turning to `NC(=O)CC(=O)N1CCC(c2nn(C3CC3)c3ccc(C(c4ccc(Cl)cc4)c4ccc(Cl)cc4)cc23)CC1` [Compound 90], the figures for the 50% effective concentration (EC50) in experiment [1] and in experiment [2] were 716 nM and 3100 nM, respectively.

For `NC(=O)c1ccccc1S(=O)(=O)N1CCC(c2nn(CCO)c3ccc(C(c4ccc(Cl)cc4)c4ccc(Cl)cc4)cc23)CC1` [Compound 70], the concentration giving a half-maximal response (EC50) in experiment [1] was 428 nM; in experiment [2], over 10000 nM.

`NC(=O)c1ccc(S(=O)(=O)N2CCC(c3c4cc(C(c5ccc(Cl)cc5)c5ccc(Cl)cc5)ccc4nn3C3CC3)CC2)cn1` [Compound 165, 5-(4-(5-(bis(4-chlorophenyl)methyl)-2-cyclopropyl-2H-indazol-3-yl)piperidin-1-ylsulfonyl)picolinamide]: the concentration for a half-maximal effect (EC50) in experiment [1] is 13 nM; in experiment [2], over 10000 nM.

In the case of `O=S(=O)(N1CCC(c2n[nH]c3ccc(C(c4ccc(Cl)cc4)C4CCCCC4)cc23)CC1)C(F)(F)F` (stereo not shown) [Compound 280], the EC50 was 565 nM in experiment [1] and over 42000 nM in experiment [2].

For `NC(=O)c1ccccc1Cn1nc(N2CCN(S(=O)(=O)C(F)(F)F)CC2)c2cc(C(c3ccc(Cl)cc3)c3ccc(Cl)cc3)ccc21` [Compound 55], the EC50 in experiment [1] was 649 nM; in experiment [2] it was over 10000 nM.

For `COc1ccc(S(=O)(=O)N2CCC(c3c4cc(C(c5ccc(Cl)cc5)c5ccc(Cl)cc5)ccc4nn3C3CC3)CC2)cc1C(=O)O` [Compound 164, 5-(4-(5-(bis(4-chlorophenyl)methyl)-2-cyclopropyl-2H-indazol-3-yl)piperidin-1-ylsulfonyl)-2-methoxybenzoic acid], the figures for the half-maximal effective concentration (EC50) in experiment [1] and in experiment [2] were 26 nM and over 10000 nM, respectively.

As to `O=C(O)c1cccc(C(=O)N2CCC(c3nn(C4CC4)c4ccc(C(c5ccc(Cl)cc5)c5ccc(Cl)cc5)cc34)CC2)c1` [Compound 97], the results for the EC50 in experiment [1] and in experiment [2] were 478 nM and over 10000 nM, respectively.

Consider `O=C(c1nnc[nH]1)N1CCC(c2n[nH]c3ccc(C(c4ccc(Cl)cc4)c4ccc(Cl)cc4)cc23)CC1` [Compound 144], for which the figures for the concentration giving a half-maximal response (EC50) in experiment [1] and in experiment [2] were 5480 nM and over 10000 nM, respectively.

On to `O=C(Oc1ccccc1)N1CCC(c2n[nH]c3ccc(C(c4ccc(Cl)cc4)c4ccc(Cl)cc4)cc23)CC1` [Compound 267], for which the figures for the half-maximal effective concentration (EC50) in experiment [1] and in experiment [2] were 79 nM and over 2000 nM, respectively.

As for `NC(=O)c1cccc(S(=O)(=O)N2CCC(c3nn(C4CC4)c4ccc(C(c5ccc(Cl)cc5)c5ccc(Cl)cc5)cc34)CC2)c1` [Compound 94], the EC50 in experiment [1] was 65 nM; in experiment [2], over 10000 nM.

With `CC(C)(O)Cn1nc(C2CCN(S(=O)(=O)C(F)(F)F)CC2)c2cc(C(c3ccc(Cl)cc3)c3ccc(Cl)cc3)ccc21` [Compound 201], the 50% effective concentration (EC50) was 2640 nM in experiment [1] and over 10000 nM in experiment [2].

Regarding `Cc1ccc(C(c2ccc(Cl)cc2)c2ccc3c(c2)c(C2CCN(Cc4cccc(C(=O)O)c4)CC2)nn3C2CC2)cc1` (stereo not shown) [Compound 247], the concentration giving a half-maximal response (EC50) was 20 nM in experiment [1] and over 10000 nM in experiment [2].

`NC(=O)CS(=O)(=O)N1CCC(c2nn(C3CC3)c3ccc(C(c4ccc(Cl)cc4)c4ccc(Cl)cc4)cc23)CC1` [Compound 115]: the EC50 in experiment [1] was 1010 nM; in experiment [2], over 10000 nM.

In the case of `O=C(CCO)N1CCC(c2c3cc(C(c4ccc(Cl)cc4)c4ccc(Cl)cc4)ccc3nn2C2CC2)CC1` [Compound 132], the results for the EC50 in experiment [1] and in experiment [2] were 166 nM and over 10000 nM, respectively.

Turning to `NC(=O)COc1cccc(N2CCC(c3c4cc(C(c5ccc(Cl)cc5)c5ccc(Cl)cc5)ccc4nn3C3CC3)CC2)c1` [Compound 195, 2-(3-(4-(5-(bis(4-chlorophenyl)methyl)-2-cyclopropyl-2H-indazol-3-yl)piperidin-1-yl)phenoxy)acetamide], the results for the concentration for a half-maximal effect (EC50) in experiment [1] and in experiment [2] were 32 nM and 6990 nM, respectively.

On to `NC(=O)COc1ccc(N2CCC(c3c4cc(C(c5ccc(Cl)cc5)c5ccc(Cl)cc5)ccc4nn3C3CC3)CC2)cc1` [Compound 197, 2-(4-(4-(5-(bis(4-chlorophenyl)methyl)-2-cyclopropyl-2H-indazol-3-yl)piperidin-1-yl)phenoxy)acetamide], for which the EC50 turned out to be 32 nM in experiment [1] and 7100 nM in experiment [2].

`O=C(O)c1cccc(CN2CCC(c3nn(C4CC4)c4ccc(C(c5ccccc5)c5ccc(Cl)cc5)cc34)CC2)c1` (stereo not shown) [Compound 245]: the half-maximal effective concentration (EC50) was 20 nM in experiment [1] and over 10000 nM in experiment [2].

As for `NC(=O)CS(=O)(=O)N1CCC(c2n[nH]c3ccc(C(c4ccc(Cl)cc4)c4ccc(Cl)cc4)cc23)CC1` [Compound 25], the EC50 is 1230 nM in experiment [1] and over 10000 nM in experiment [2].
